# Measured values as given in patent US11518764B2, “Substituted heteroaryls as inhibitors of the BCL6 BTB domain protein-protein interaction” (Ontario Institute for Cancer Research (OICR), priority 2018, dated 2022).
# How the values were obtained:
# BCL6 BTB domain = BCL6 BTB domain (Homo sapiens (Human), UniProt P41182); test: Surface plasmon resonance (SPR) assay; format: binding; conditions: BCL6 BTB domain captured on SA chip, single cycle kinetics
# Karpas422 cells = test: Tumor cell growth inhibition assay; format: cell-based; conditions: Homo sapiens, KARPAS-422, 144 h, read-out: Tumor Growth Inhibition in Karpas-422 (IC50, uM), Karpas422 cells, six days, ATPlite
# Method in brief: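 Karpas422 cells (2,000/well) in Alpha-MEM with 10% FBS dosed across 10 concentrations (top 5 uM) and grown six days at 37° C., 5% CO2. Viability read as ATPlite luminescence.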
# [1] = system: BCL6 reporter construct (3xBCL6-TK-Luc) in SuDHL4 cells; test: Cell-based luciferase assay; conditions: Homo sapiens, SU-DHL-4, 48 h, read-out: Luciferase-Assay EC50, uM), SuDHL4-3xBCL6-TK-Luc cells, two days, high dose 10 uM
# Method in brief: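 SuDHL4 cells stably carrying a 3×BCL6-site TK-promoter firefly luciferase reporter, seeded at 15,000 cells/well, were dosed over a 10-point range (top 10 uM) and grown two days at 37 °C, 5% CO2. Luminescence then read after adding neolite reagent at room temperature.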
SMILES,Kd (BCL6 BTB domain) [nM],IC50 (Karpas422 cells) [µM],EC50 [1] [µM]
Cn1cnc2c(c(-c3cc(Cl)c(O)c(C(N)=O)c3)cn2CC(=O)Nc2cc(N3CCC(F)C3)ncc2Cl)c1=O (stereo not drawn) [Compound I-67],14,0.267,0.296
CN(C)c1cc(NC(=O)Cn2cc(-c3cc(F)c(O)c(C(N)=O)c3)c3c(=O)n(C)cnc32)c(Cl)c(F)n1 [Compound I-423],5.06,0.0391,0.143
CC(C1CC1)N1CCN(c2cc(NC(=O)Cn3cc(-c4cc(F)c(O)c(C(N)=O)c4)c4c(=O)n(C)cnc43)c(Cl)cn2)[C@@H](C)C1 (stereo partly drawn) [Compound I-391],7.26,0.0726,0.0672
Cc1nc2c(c(-c3cc(Cl)c(O)c(C(N)=O)c3)cn2CC(=O)Nc2cc(N3CCN(C)C[C@@H]3C)ncc2Cl)c(=O)[nH]1 [Compound I-128],12,0.074,0.173
C[C@H]1CN(CCC(F)(F)F)CCN1c1cc(NC(=O)Cn2cc(-c3cc(C(N)=O)c(O)c(F)c3F)c3c(=O)n(C)cnc32)c(Cl)cn1 [Compound I-453],54.3,0.16,0.41
CN1CC2CCC(C1)N2c1cc(NC(=O)Cn2cc(-c3cc(F)c(O)c(C(N)=O)c3)c3c(=O)n(C)cnc32)c(Cl)cn1 [Compound I-477],10.1,0.272,0.328
C[C@H]1CN(C)CCN1c1cc(NC(=O)Cn2cc(-c3cc(Cl)c(O)c(C(N)=O)c3)c3c(=O)n(C)c(C(F)(F)F)nc32)c(Cl)c(F)n1 [Compound I-368],83.5,0.407,0.369
"Cn1cnc2c(c(-c3cc(C(N)=O)c(O)c(F)c3F)cn2CC(=O)Nc2cc(NCCCO)nc(F)c2Cl)c1=O [Compound I-481, 5-(7-(2-((3-chloro-2-fluoro-6-((3-hydroxypropyl)amino)pyridin-4-yl)amino)-2-oxoethyl)-3-methyl-4-oxo-4,7-dihydro-3H-pyrrolo[2,3-d]pyrimidin-5-yl)-3,4-difluoro-2-hydroxybenzamide]",19.2,10,19.4
Cn1cnc2c(c(-c3cc(C(N)=O)c(O)c(Cl)c3F)cn2CC(=O)Nc2cc(N3CCOCC3)ncc2F)c1=O [Compound I-196],323,10,6.34
Cn1cnc2c(c(-c3cc(Cl)c(O)c(C(N)=O)c3)cn2CC(=O)Nc2cc(N3CCN4CCOCC4C3)ncc2Cl)c1=O (stereo not drawn) [Compound I-75],8,0.099,0.132
CC[C@H]1CN(c2cc(NC(=O)Cn3cc(-c4cc(Cl)c(O)c(C(N)=O)c4)c4c(=O)n(C)cnc43)c(Cl)cn2)CCO1 [Compound I-203],30.6,0.187,0.222
CN(C1CCC(c2cc(NC(=O)Cn3cc(-c4cc(Cl)c(O)c(C(N)=O)c4)c4c(=O)n(C)cnc43)c(Cl)cn2)C1)S(C)(=O)=O (stereo not drawn) [Compound I-148],20.9,0.541,1.31
Cn1cnc2c(c(-c3cc(Cl)c(O)c(C(N)=O)c3)cn2CC(=O)Nc2cc(N3CC4CCC3C4)ncc2Cl)c1=O (stereo not drawn) [Compound I-126],39,0.268,2.85
COCCN1CCN(c2cc(NC(=O)Cn3cc(-c4cc(Cl)c(O)c(C(N)=O)c4)c4c(=O)n(C)cnc43)c(Cl)c(F)n2)[C@@H](C)C1 [Compound I-447],9.02,0.0709,0.113
C[C@@H]1CCCN1c1cc(NC(=O)Cn2cc(-c3cc(Cl)c(O)c(C(N)=O)c3)c3c(=O)n(C)cnc32)c(Cl)cn1 [Compound I-135],69,1.43,3.01
COc1c(O)c(C(N)=O)cc(-c2cn(CC(=O)Nc3cc(N4CCOCC4)ncc3Cl)c3ncn(C)c(=O)c23)c1F [Compound I-171],99.7,1.04,1.2
CN(C)c1cc(NC(=O)Cn2cc(-c3cc(C(N)=O)c(O)c(F)c3F)c3c(=O)n(C)cnc32)c(Cl)cn1 [Compound I-297],57.9,0.846,0.395
C[C@H]1CN(C2CCC2)CCN1c1cc(NC(=O)Cn2cc(-c3cc(C(N)=O)c(O)c(F)c3F)c3c(=O)n(C)cnc32)c(Cl)cn1 [Compound I-359],42.2,1.34,0.521
CCN1CCN(c2cc(NC(=O)Cn3cc(-c4cc(C(N)=O)c(O)c(F)c4F)c4c(=O)n(C)cnc43)c(Cl)c(F)n2)[C@@H](C)C1 [Compound I-426],17.7,0.128,0.226
COCCN1CCN(c2cc(NC(=O)Cn3cc(-c4cc(C(N)=O)c(O)c(F)c4F)c4c(=O)n(C)cnc43)c(Cl)c(F)n2)[C@@H](C)C1 [Compound I-446],7.29,0.137,0.157
